Results taken from the NIST ThermoML archive (doi:10.1016/j.jct.2005.02.004).
± gives the expanded uncertainty stated by the source.

Experiment: mn = molality of the nth substance listed, in mol/kg
Details: Liquid, Vibrating tube method

[Br-].[Br-].[Zn+2] [zinc bromide] + CO
Details	mass density [kg/m3]
348.24 K, 320 kPa, m1 = 0.05772	749.2 ± 0.46
348.24 K, 338 kPa, m1 = 1.951	1012.66 ± 0.43
348.24 K, 4981 kPa, m1 = 0.05772	755.32 ± 0.47
348.24 K, 4997 kPa, m1 = 1.951	1018.61 ± 0.43
348.24 K, 9997 kPa, m1 = 0.05772	761.44 ± 0.48
348.24 K, 10010 kPa, m1 = 1.951	1024.67 ± 0.43
348.24 K, 14982 kPa, m1 = 0.05772	767.11 ± 0.5
348.24 K, 14997 kPa, m1 = 1.951	1030.41 ± 0.43
348.24 K, 19995 kPa, m1 = 1.951	1035.89 ± 0.43
348.24 K, 20002 kPa, m1 = 0.05772	772.47 ± 0.52
348.24 K, 25006 kPa, m1 = 1.951	1041.15 ± 0.44
348.24 K, 25019 kPa, m1 = 0.05772	777.52 ± 0.53
348.24 K, 29980 kPa, m1 = 1.951	1046.17 ± 0.44
348.24 K, 29988 kPa, m1 = 0.05772	782.26 ± 0.55
348.24 K, 34988 kPa, m1 = 0.05772	786.8 ± 0.57
348.24 K, 34988 kPa, m1 = 1.951	1051.04 ± 0.44
348.24 K, 39992 kPa, m1 = 1.951	1055.74 ± 0.45
348.24 K, 39996 kPa, m1 = 0.05772	791.14 ± 0.59
373.24 K, 509 kPa, m1 = 0.3785	775.13 ± 0.45
373.24 K, 510 kPa, m1 = 0.7158	822.07 ± 0.44
373.24 K, 4989 kPa, m1 = 0.3785	782.12 ± 0.46
373.24 K, 5012 kPa, m1 = 0.7158	828.98 ± 0.45
373.24 K, 9999 kPa, m1 = 0.7158	836.05 ± 0.45
373.24 K, 10005 kPa, m1 = 0.3785	789.3 ± 0.47
373.24 K, 14990 kPa, m1 = 0.7158	842.63 ± 0.46
373.24 K, 14993 kPa, m1 = 0.3785	795.89 ± 0.48
373.24 K, 19988 kPa, m1 = 0.7158	848.79 ± 0.47
373.24 K, 20013 kPa, m1 = 0.3785	802.08 ± 0.5
373.24 K, 24986 kPa, m1 = 0.3785	807.84 ± 0.51
373.24 K, 25005 kPa, m1 = 0.7158	854.61 ± 0.48
373.24 K, 29988 kPa, m1 = 0.3785	813.28 ± 0.52
373.24 K, 29996 kPa, m1 = 0.7158	860.06 ± 0.48
373.24 K, 35005 kPa, m1 = 0.3785	818.47 ± 0.54
373.24 K, 35010 kPa, m1 = 0.7158	865.28 ± 0.49
373.24 K, 39999 kPa, m1 = 0.3785	823.36 ± 0.55
373.24 K, 40008 kPa, m1 = 0.7158	870.23 ± 0.5
373.25 K, 530 kPa, m1 = 0.05772	722.55 ± 0.46
373.25 K, 5013 kPa, m1 = 0.05772	729.6 ± 0.47
373.25 K, 10010 kPa, m1 = 0.05772	736.76 ± 0.49
373.25 K, 14996 kPa, m1 = 0.05772	743.34 ± 0.51
373.25 K, 20007 kPa, m1 = 0.05772	749.46 ± 0.53
373.25 K, 25002 kPa, m1 = 0.05772	755.2 ± 0.55
373.25 K, 29988 kPa, m1 = 0.05772	760.57 ± 0.57
373.25 K, 35011 kPa, m1 = 0.05772	765.68 ± 0.59
373.25 K, 40009 kPa, m1 = 0.05772	770.5 ± 0.62
373.26 K, 510 kPa, m1 = 1.951	982.6 ± 0.43
373.26 K, 4981 kPa, m1 = 1.951	989.17 ± 0.43
373.26 K, 9999 kPa, m1 = 1.951	996.08 ± 0.43
373.26 K, 14998 kPa, m1 = 1.951	1002.57 ± 0.43
373.26 K, 19990 kPa, m1 = 1.951	1008.69 ± 0.43
373.26 K, 25011 kPa, m1 = 1.951	1014.53 ± 0.43
373.26 K, 29987 kPa, m1 = 1.951	1020.09 ± 0.43
373.26 K, 34996 kPa, m1 = 1.951	1025.43 ± 0.43
373.26 K, 39999 kPa, m1 = 1.951	1030.56 ± 0.44
398.25 K, 874 kPa, m1 = 0.7158	791.54 ± 0.44
398.25 K, 875 kPa, m1 = 0.3785	744.91 ± 0.46
398.25 K, 4997 kPa, m1 = 0.7158	799.23 ± 0.45
398.25 K, 5007 kPa, m1 = 0.3785	752.83 ± 0.46
398.25 K, 9995 kPa, m1 = 0.7158	807.74 ± 0.46
398.25 K, 9997 kPa, m1 = 0.3785	761.43 ± 0.48
398.25 K, 14982 kPa, m1 = 0.7158	815.46 ± 0.47
398.25 K, 15016 kPa, m1 = 0.3785	769.33 ± 0.49
398.25 K, 19995 kPa, m1 = 0.7158	822.66 ± 0.48
398.25 K, 19996 kPa, m1 = 0.3785	776.5 ± 0.51
398.25 K, 25004 kPa, m1 = 0.7158	829.32 ± 0.49
398.25 K, 25013 kPa, m1 = 0.3785	783.19 ± 0.53
398.25 K, 29995 kPa, m1 = 0.3785	789.37 ± 0.54
398.25 K, 29999 kPa, m1 = 0.7158	835.55 ± 0.5
398.25 K, 34983 kPa, m1 = 0.7158	841.37 ± 0.51
398.25 K, 34995 kPa, m1 = 0.3785	795.22 ± 0.56
398.25 K, 39988 kPa, m1 = 0.7158	846.94 ± 0.52
398.25 K, 40001 kPa, m1 = 0.3785	800.74 ± 0.58
398.27 K, 890 kPa, m1 = 1.951	951.2 ± 0.43
398.27 K, 899 kPa, m1 = 0.05772	692.91 ± 0.46
398.27 K, 4987 kPa, m1 = 1.951	958.29 ± 0.43
398.27 K, 5013 kPa, m1 = 0.05772	700.92 ± 0.48
398.27 K, 9996 kPa, m1 = 1.951	966.33 ± 0.43
398.27 K, 10001 kPa, m1 = 0.05772	709.63 ± 0.5
398.27 K, 14992 kPa, m1 = 0.05772	717.48 ± 0.52
398.27 K, 14992 kPa, m1 = 1.951	973.78 ± 0.43
398.27 K, 19995 kPa, m1 = 0.05772	724.66 ± 0.54
398.27 K, 20001 kPa, m1 = 1.951	980.78 ± 0.43
398.27 K, 24985 kPa, m1 = 0.05772	731.27 ± 0.57
398.27 K, 25015 kPa, m1 = 1.951	987.36 ± 0.43
398.27 K, 29996 kPa, m1 = 1.951	993.57 ± 0.43
398.27 K, 30002 kPa, m1 = 0.05772	737.46 ± 0.59
398.27 K, 34980 kPa, m1 = 1.951	999.48 ± 0.43
398.27 K, 34994 kPa, m1 = 0.05772	743.23 ± 0.62
398.27 K, 39999 kPa, m1 = 0.05772	748.68 ± 0.64
398.27 K, 40007 kPa, m1 = 1.951	1005.18 ± 0.43
